Laboratory results from patent US20090221559A1 (priority 2005, published 2009).

What was measured:
[1] = biological target: T1, HCV NS5B polymerase (His-tagged, C-terminal 21 amino acid deleted NS5B, HC-J4) (Hepatitis C virus genotype 1b, UniProt O92972); experiment: NS5b polymerase assay (biochemical RdRp assay, 3H-GTP incorporation, SPA beads); parameters: species or system HCV genotype 1b; settings: NS5B Polymerase Assay IC50 (μM)
T1 construct: The cDNA encoding NS5B amino acid 1-570 (HC-J4, genotype 1b); His tag (His6, from pET-21b) (C); made in house; host or cells: E. coli BL21 (DE3)
How it was run: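 His-tagged C-terminal-21-aa-deleted NS5B (genotype 1b, HC-J4) at 200 nM was preincubated 15 min at RT with compound on 5′-biotinylated oligo(rG13)/poly(rC) template/primer before NTPs. Reaction with 600 nM GTP plus 0.1 μCi 3H-GTP and 5 mM MgCl2 in Tris pH 7.5 ran 2 h at 25 °C. Stopped with EDTA/SPA beads for incorporation counting.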

[2] = system: HCV replicon RNA replication in Huh-7 luc/neo (Huh-Luc) cells; experiment: HCV replicon assay (stable replicon cell reporter assay, luciferase read-out); type: cell-based, HCV type 1b; settings: Hepatitis C virus, Huh-7, 72 h, read-out: Replicon Assay EC50 (μM), Huh-Luc cells, incubation of three days, luciferase activity
How it was run: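 Huh-7 cells stably carry a bicistronic HCV 1b NS3-NS5B subgenomic replicon with firefly luciferase and neo markers. Cells were plated with compound across a concentration range and incubated three days. Replication was measured as luciferase activity to give dose-response curves.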

T1 sequence (O92972 2417-3000, looked up, stated change not applied): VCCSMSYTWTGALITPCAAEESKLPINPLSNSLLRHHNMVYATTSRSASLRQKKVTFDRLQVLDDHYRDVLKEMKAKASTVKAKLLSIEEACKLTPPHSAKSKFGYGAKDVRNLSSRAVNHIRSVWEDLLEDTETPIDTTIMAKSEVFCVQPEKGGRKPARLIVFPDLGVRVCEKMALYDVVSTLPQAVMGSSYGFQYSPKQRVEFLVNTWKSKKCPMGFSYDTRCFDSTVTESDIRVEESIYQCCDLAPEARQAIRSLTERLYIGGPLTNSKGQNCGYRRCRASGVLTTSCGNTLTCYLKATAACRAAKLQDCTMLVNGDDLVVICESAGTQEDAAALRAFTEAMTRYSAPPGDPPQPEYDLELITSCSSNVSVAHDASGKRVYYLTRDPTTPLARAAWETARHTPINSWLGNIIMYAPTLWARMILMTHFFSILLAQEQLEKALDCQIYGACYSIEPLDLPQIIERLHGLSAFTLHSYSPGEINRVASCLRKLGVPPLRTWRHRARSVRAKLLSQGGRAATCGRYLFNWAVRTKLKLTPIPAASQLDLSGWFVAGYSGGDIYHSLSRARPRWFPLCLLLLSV

| SMILES | IC50 [1] | EC50 [2] |
| --- | --- | --- |
| COc1ccc(C2CC(=O)C3=C(C2)Nc2ccccc2NC3c2ccc(OCc3ccccc3)c(OC)c2)cc1 (stereo not drawn) [compound 385] | > 42.7 µM | 3.54 µM |
| CCOc1cc(C2Nc3ccccc3NC3=C2C(=O)CC(c2ccc(OC)cc2)C3)ccc1OC(C)=O (stereo not drawn) [compound 386] | > 42.7 µM | > 29.6 µM |
| COc1ccc(C2CC(=O)C3=C(C2)Nc2ccccc2NC3c2ccc([N+](=O)[O-])cc2)cc1 (stereo not drawn) [compound 387] | > 42.7 µM | 5.56 µM |
| COc1ccc(C2CC(=O)C3=C(C2)Nc2ccccc2NC3c2ccc(OCc3ccccc3)cc2)cc1 (stereo not drawn) [compound 388] | > 42.7 µM | 6.35 µM |
| COc1ccc(C2CC(=O)C3=C(C2)Nc2ccccc2NC3c2ccc(Cl)c([N+](=O)[O-])c2)cc1 (stereo not drawn) [compound 389] | > 42.7 µM | 5.58 µM |
| COc1ccc(C2CC(=O)C3=C(C2)Nc2ccccc2NC3c2ccccc2Br)cc1 (stereo not drawn) [compound 390] | > 42.7 µM | 9.07 µM |
| COc1ccc(C2CC(=O)C3=C(C2)Nc2ccccc2NC3c2cccc(C)c2)cc1 (stereo not drawn) [compound 391] | > 42.7 µM | 18.5 µM |
| COc1ccc(C2CC(=O)C3=C(C2)Nc2ccccc2NC3c2cccc(O)c2)cc1 (stereo not drawn) [compound 392] | > 42.7 µM | 22.6 µM |
| CCOc1ccccc1C1Nc2ccccc2NC2=C1C(=O)CC(c1ccccc1)C2 (stereo not drawn) [compound 393] | > 33.3 µM | 6.84 µM |
| CCCOc1ccc(C2Nc3ccccc3NC3=C2C(=O)CC(c2ccc(OC)cc2)C3)cc1OC (stereo not drawn) [compound 394] | > 42.7 µM | 14.1 µM |
| Cc1ccc(C2Nc3ccccc3NC3=C2C(=O)CC(c2ccccc2Cl)C3)cc1 (stereo not drawn) [compound 395] | > 42.7 µM | 9.91 µM |
| O=C1CC(c2ccccc2)CC2=C1C(c1ccccc1[N+](=O)[O-])Nc1ccccc1N2 (stereo not drawn) [compound 396] | > 42.7 µM | 11.3 µM |
| COc1ccc(C2CC(=O)C3=C(C2)Nc2ccccc2NC3c2cc(Br)c(O)c(OC)c2)cc1OC (stereo not drawn) [compound 397] | > 42.7 µM | 6.13 µM |
| COc1ccc(C2CC(=O)C3=C(C2)Nc2ccccc2NC3c2cc(OC)c(OC)cc2OC)cc1 (stereo not drawn) [compound 398] | > 42.7 µM | 10.9 µM |
| CCOc1cc(C2Nc3ccccc3NC3=C2C(=O)CC(c2ccc(OC)c(OC)c2)C3)cc(Br)c1O (stereo not drawn) [compound 399] | > 42.7 µM | 19.4 µM |
| COc1ccc(C2CC(=O)C3=C(C2)Nc2ccccc2NC3c2cc(OC)c(OC)cc2Br)cc1 (stereo not drawn) [compound 400] | > 42.7 µM | 3.28 µM |
| COc1ccc(C2CC(=O)C3=C(C2)Nc2ccccc2NC3c2cccc(OC)c2OC)cc1OC (stereo not drawn) [compound 401] | > 42.7 µM | 2.88 µM |
| COc1ccc(C2CC(=O)C3=C(C2)Nc2ccccc2NC3c2cc(Br)c(OC)c(OC)c2)cc1 (stereo not drawn) [compound 402] | > 42.7 µM | 8.59 µM |
| COc1ccc(C2CC(=O)C3=C(C2)Nc2ccccc2NC3c2cc(OC)c(OC)cc2OC)cc1OC (stereo not drawn) [compound 403] | > 42.7 µM | 7.12 µM |
| COc1ccc(C2CC(=O)C3=C(C2)Nc2ccccc2NC3c2cc(Br)ccc2OC)cc1OC (stereo not drawn) [compound 404] | > 42.7 µM | 3.24 µM |
| COc1ccc(C2CC(=O)C3=C(C2)Nc2ccccc2NC3c2ccc(OCc3ccccc3)c(OC)c2)cc1OC (stereo not drawn) [compound 405] | > 42.7 µM | 5.34 µM |
| CCOc1cc(C2Nc3ccccc3NC3=C2C(=O)CC(c2ccc(OC)cc2)C3)cc(Br)c1OC (stereo not drawn) [compound 406] | > 42.7 µM | 7.29 µM |
| O=C1CC(c2ccccc2)CC2=C1C(c1ccccc1C(F)(F)F)Nc1ccccc1N2 (stereo not drawn) [compound 407] | > 33.3 µM | 15.6 µM |
| Cc1ccc(C2CC(=O)C3=C(C2)Nc2ccccc2NC3c2ccc(C)cc2)cc1 (stereo not drawn) [compound 408] | > 33.3 µM | 14.2 µM |
| Cc1ccc(C2Nc3ccccc3NC3=C2C(=O)CC(c2ccc(Cl)cc2)C3)cc1 (stereo not drawn) [compound 409] | > 33.3 µM | 14.9 µM |
| CCOc1cccc(C2Nc3ccccc3NC3=C2C(=O)CC(c2ccccc2)C3)c1 (stereo not drawn) [compound 410] | > 33.3 µM | 22.6 µM |

| SMILES | IC50 [1] | EC50 [2] |
| --- | --- | --- |
| Cc1ccc(C2CC(=O)C3=C(C2)Nc2ccccc2NC3c2ccccc2Cl)cc1 (stereo not drawn) [compound 411] | > 33.3 µM | 17.9 µM |
| Cc1ccc(C2CC(=O)C3=C(C2)Nc2ccccc2NC3c2ccccc2F)cc1 (stereo not drawn) [compound 412] | > 33.3 µM | 16.7 µM |
| O=C1CC(c2ccco2)CC2=C1C(c1ccc(Cl)cc1)Nc1ccccc1N2 (stereo not drawn) [compound 413] | > 33.3 µM | 12 µM |
| Cc1ccc(C2CC(=O)C3=C(C2)Nc2ccccc2NC3c2ccccc2)cc1 (stereo not drawn) [compound 414] | > 33.3 µM | 13.6 µM |
| COc1ccc(C2CC(=O)C3=C(C2)Nc2ccccc2NC3c2ccc(Cl)cc2)cc1OC (stereo not drawn) [compound 415] | > 33.3 µM | 14.7 µM |
| COc1ccc(C2CC(=O)C3=C(C2)Nc2ccccc2NC3c2ccc(Cl)cc2)cc1 (stereo not drawn) [compound 416] | > 33.3 µM | 11.2 µM |
| O=C1CCCC2=C1C(c1ccc(Cl)cc1Cl)Nc1ccccc1N2 (stereo not drawn) [compound 421] | > 133 µM | 51.9 µM |
| CC1CC(=O)C2=C(C1)Nc1ccccc1NC2c1ccc(Cl)cc1Cl (stereo not drawn) [compound 422, 11-(2,4-dichlorophenyl)-3-methyl-2,3,4,5,10,11-hexahydro-1H-dibenzo[b,e][1,4]diazepin-1-one] | > 133 µM | > 100 µM |
| CC1(C)CC(=O)C2=C(C1)Nc1ccccc1NC2c1ccc(Cl)cc1Cl (stereo not drawn) [compound 423, 11-(2,4-dichlorophenyl)-2,3,4,5,10,11-hexahydro-3,3-dimethyl-1H-dibenzo[b,e][1,4]diazepin-1-one] | 37.9 µM | 26.4 µM |
| COc1ccc(C2Nc3ccccc3NC3=C2C(=O)CC(C)(C)C3)cc1OCc1ccccc1 (stereo not drawn) [compound 424] | 11.6 µM | 12.5 µM |
| CC1(C)CC(=O)C2=C(C1)Nc1ccccc1NC2c1ccccc1OCc1ccccc1 (stereo not drawn) [compound 425] | > 42.7 µM | 13.2 µM |
| CC1(C)CC(=O)C2=C(C1)Nc1ccccc1NC2c1ccc(OCc2ccccc2)cc1 (stereo not drawn) [compound 426] | 30.8 µM | 7.31 µM |
| CC1(C)CC(=O)C2=C(C1)Nc1ccccc1NC2c1cccc(Cl)c1Cl (stereo not drawn) [compound 427] | > 42.7 µM | 20.7 µM |
| CC1(C)CC(=O)C2=C(C1)Nc1ccccc1NC2c1c(F)cccc1Cl (stereo not drawn) [compound 428] | > 42.7 µM | 16 µM |
| CC1(C)CC(=O)C2=C(C1)Nc1ccccc1NC2c1ccc(C(F)(F)F)cc1 (stereo not drawn) [compound 429] | > 42.7 µM | > 31 µM |
| COc1ccc(C2Nc3ccccc3NC3=C2C(=O)CC(C)(C)C3)cc1COc1ccc(F)cc1F (stereo not drawn) [compound 430] | > 33.3 µM | 10.8 µM |
| CC1(C)CC(=O)C2=C(C1)Nc1ccccc1NC2c1cccc(OC(=O)c2ccc(Cl)cc2)c1 (stereo not drawn) [compound 431, 11-[3-(4-Chlorobenzoyloxy)phenyl]-3,3-dimethyl-2,3,4,5,10,11-hexahydro-dibenzo[b,e][1,4]diazepin-1-one] | 82.9 µM | > 100 µM |
| CC1(C)CC(=O)C2=C(C1)Nc1ccccc1NC2c1ccccc1C(=O)O (stereo not drawn) [compound 432] | > 42.7 µM | 17.7 µM |
| CC1(C)CC(=O)C2=C(C1)Nc1ccccc1NC2c1cccc(Oc2ccccc2)c1 (stereo not drawn) [compound 433, 11-(3-phenoxyphenyl)-3,3-dimethyl-2,3,4,5,10,11-hexahydro-1H-dibenzo[b,e][1,4]diazepin-1-one] | > 133 µM | 3.81 µM |
| CC1(C)CC(=O)C2=C(C1)Nc1ccccc1NC2c1ccc(OC(F)(F)F)cc1 (stereo not drawn) [compound 434, 11-(4-trifluoromethyloxyphenyl)-3,3-dimethyl-2,3,4,5,10,11-hexahydro-1H-dibenzo[b,e][1,4]diazepin-1-one] | > 133 µM | 22.9 µM |
| CC1(C)CC(=O)C2=C(C1)Nc1ccccc1NC2c1ccc(Oc2ccccc2)cc1 (stereo not drawn) [compound 435, 11-(4-phenoxyphenyl)-3,3-dimethyl-2,3,4,5,10,11-hexahydro-1H-dibenzo[b,e][1,4]diazepin-1-one] | > 133 µM | 6.7 µM |
| CC1(C)CC(=O)C2=C(C1)Nc1ccccc1NC2c1cc(Cl)cc(Cl)c1 (stereo not drawn) [compound 436, 11-[3,5-dichlorophenyl]-3,3-dimethyl-2,3,4,5,10,11-hexahydro-1H-dibenzo[b,e][1,4]diazepin-1-one] | > 133 µM | 19.7 µM |
| CC1(C)CC(=O)C2=C(C1)Nc1ccccc1NC2c1cccc(OCc2ccccc2)c1 (stereo not drawn) [compound 437, 11-(3-benzyloxyphenyl)-3,3-dimethyl-2,3,4,5,10,11-hexahydro-1H-dibenzo[b,e][1,4]diazepin-1-one] | 32.9 µM | 6.35 µM |
| CC1(C)CC(=O)C2=C(C1)Nc1ccccc1NC2c1cc(Cl)ccc1Cl (stereo not drawn) [compound 438, 11-[2,5-dichlorophenyl]-3,3-dimethyl-2,3,4,5,10,11-hexahydro-1H-dibenzo[b,e][1,4]diazepin-1-one] | > 133 µM | 15.4 µM |
| CC1(C)CC(=O)C2=C(C1)Nc1ccccc1NC2c1ccc(OCc2ccccc2)c(Cl)c1 (stereo not drawn) [compound 439, 11-[4-benzyloxy-3-chlorophenyl]-3,3-dimethyl-2,3,4,5,10,11-hexahydro-1H-dibenzo[b,e][1,4]diazepin-1-one] | 3.63 µM | 4.33 µM |
